# How the values were obtained:
# [1] = Solubility in donor buffer
# [2] = HPLC-UV analysis of sample solutions for oxidation or degradation products; assay type: physicochemical; conditions: HPLC with UV detection, 215 nm
# Method: 7-(4-methyl-1-piperazinyl)-2(3H)-benzoxazolone was analyzed using HPLC with UV detection (Waters Chromatography, Etten Leur, The Netherlands). A Chromsep SS column was used (250*3 mm L*i.d.) thermostatted at 30° C. The mobile phase consisted of acetonitrile/methanol/0.7 g/l ammonium acetate buffer at pH 5.6 ([…] v/v) and was used at 0.5 ml/min. The detection wavelength was 215 nm.
# [3] = Iontophoretic transport across human stratum corneum, three-chamber continuous flow-through diffusion cells; assay type: in vitro ADME; conditions: for iontophoretic flux (averages±s.e.m.): 4 g/l NaCl, citrate buffer pH 5.5, 0.5 mA/cm^2; for mean transport during the iontophoretic period: citrate buffer pH 5.5, 0.5 mA/cm^2, no NaCl added; for mean transport during the iontophoretic period (averages±s.e.m.): drug 35 mg/ml, pH 5.5, 0.5 mA/cm^2
# Method: Human Stratum Corneum (HSC) was prepared from dermatomed healthy human skin. Within 24 hours after surgical removal of the human skin (abdominal or breast), residual subcutaneous fat was removed. To avoid interference with contaminating subcutaneous fat, the skin surface was carefully wiped with a tissue paper soaked in 70% ethanol. The skin was dermatomed to a thickness of about 300 μm using a Padgett Electro Dermatome Model B (Kansas City, USA). It was then incubated with the dermal side on Whatman paper soaked in a solution of 0.1% trypsin in PBS overnight at 4° C. and subsequently for 1 hour at 37° C. Then HSC was peeled off from the underlying epidermis and dermis. Remaining trypsin activity was blocked by bathing HSC in a 0.1% trypsin inhibitor solution in PBS, pH 7.4. HSC was washed several times in water and stored in a silica gel containing desiccator in a N2 environment to inhibit oxidation of lipids.
# (§1) 7-(4-methyl-1-piperazinyl)-2(3H)-benzoxazolone as a HCl salt was dissolved in 10 mM sodium citrate solution. The pH was adjusted to pH 5.5 with 10 mM citric acid. 7-(4-benzyl-1-piperazinyl)-2(3H)-benzoxazolone as a mesylate salt was dissolved in 0.1 M potassium phosphate buffer. The pH was adjusted to pH 4.0 using o-phosphoric acid.
# Iontophoresis experiments with 7-(4-methyl-1-piperazinyl)-2(3H)-benzoxazolone were performed using 9-channel computer controlled power supply to provide constant current (Electronics Department, Gorlaeus Laboratories, Leiden University, The Netherlands.) Alternatively the commercial available Power Supply PCT-MK1 of Moor Instruments, UK can be used. A silver plate electrode was used as an anode (e.g. Silver foil >99.99% pure, 1.0 mm thick (Aldrich article nr. 36,943-8), 5 cm long, 3 mm wide) and a silver/silver chloride electrode (prepared by repeatedly (2 or 3 times) dipping silver wire (>99.99% pure, Ø 1.0 mm (Aldrich art. Nr. 26,559-4), bended at the tip to produce a small projection (approx. 3 mm) at a right angle to the vertical electrode shaft in melted silver chloride powder (>99.999% pure, Aldrich art. Nr. 20,438-2) as a cathode. (Alternatively, the silver plate and silver/silver chloride electrodes can be prepared according to chapter 3.4.3. of Ajay K. Banga, Electrically Assisted Transdermal and Topical Drug Delivery, Taylor and Francis Group Ltd., London UK, 1998, ISBN 0-7484-0687-5. or can be purchased from a commercial supplier such as Iomed.)
# All diffusion experiments were carried out at a constant current density of 0.5 mA/cm^2, using three chambers continuous flow through diffusion cells at room temperature. The diffusion set up consisted of a peristaltic pump, a fraction collector and 8 diffusion cells (for diffusion cell see FIG. 4). Stratum corneum was used for all diffusion studies. Human stratum corneum was hydrated for two hours in PBS pH 7.4 prior to mounting in the cells. Two pieces of stratum corneum were placed between the anodal and acceptor side, and between acceptor and cathodal side, with the apical side facing the anodal and cathodal compartments. Dialysis membrane (cut off 5,000 D) was used as supporting membrane for the stratum corneum. Parafilm rings were added for making a tight connection between the compartments. The temperature of the acceptor chamber was 37° C. The flow of PBS through the acceptor chamber was kept approximately constant for each cell during the experiment: 6-8 ml per hour. After six hours of passive diffusion, the current was switched on. The current was switched off at t=15 h. During a period of another 5 hours (post iontophoretic period) passive diffusion post iontophoresis was carried out. During iontophoresis, the current density was 0.5 mA/cm^2. The total resistance of the stratum corneum sheets was monitored during the experiment with two additional silver electrodes. A very low resistance is indicative of leakage of the stratum corneum in a cell. When this was observed, the diffusion data obtained were discarded. […]
# [4] = Iontophoretic transport across hairless rat skin, vertical Franz diffusion cells; assay type: in vitro ADME; conditions: 30 mM NaCl; for change of iontophoretic flux with active substance concentration (FIG. 4): phosphate buffer pH 4.0
# Excerpt: Hairless rats were euthanized by inhalation of carbon dioxide using an exposure chamber designed for such use half hour before start of experiment. The skin from the abdomen was carefully removed, making sure no muscle or fat was attached to the skin. The skin was then cut into small squares to fit the Franz diffusion set (Membrane Transport System, PermeGear, U.S.A) and placed in 0.1 M potassium phosphate buffer until mounted.
# as §1
# Iontophoresis experiments with 7-(4-benzyl-1-piperazinyl)-2(3H)-benzoxazolone were performed using vertical Franz diffusion cells (Membrane Transport System, PermeGear, U.S.A) hooked up to a Keithley 2400 source meter and the current monitored using a multimeter. The donor half was of the cell was exposed to room temperature (25° C.) while the receptor half was maintained at 37° C. Receptor compartment was continuously stirred. Freshly excised hairless rat skin was mounted on the vertical diffusion cells, after the receptor compartment had been filled with a suitable receptor media, which can maintain the sink condition. The receptor media had the same composition as the donor solution without the drug, so that the sink conditions could be maintained. The formulation was placed in the donor compartment. A silver wire was used as the anode in the donor and a silver/silver chloride wire was used as the cathode in the receptor. Current was applied for 3 hours using a constant current power source. However, sampling was continued till 24 hrs to see if enhanced delivery will stop on terminating current. Samples were taken at pre-determined time intervals from the receptor and analyzed by the HPLC as described below. Samples were replaced with fresh receptor medium and this was taken into consideration in the calculations.
# 7-(4-benzyl-1-piperazinyl)-2(3H)-benzoxazolone was analyzed using HPLC with UV detection (Waters Alliance system). A Chromsep SS column was used (150*3 mm L*i.d.) with particle size of 5 μm thermostatted at 40° C. The mobile phase was made using 1.54 g ammonium acetate in 460 ml of water (pH adjusted to 4.6 using acetic acid) and 540 ml of methanol and degassed. The flow rate was 0.5 ml/min. The detection wavelength was 243 nm. Injection volume was 10 μl.
Structure (SMILES),"share of the maximum solubility that a 35 mg/ml solution represents ([1]; 35 mg/ml, 10 mM citrate pH 5.5, 4 mg/ml NaCl) [%]",share of the maximum solubility that a 55 mg/ml solution represents ([1]; 55 mg/ml in citrate buffer at pH 5.5 in the presence of 4 g/l NaCl) [%],share of the maximum solubility that a 75 mg/ml solution represents ([1]; 75 mg/ml in citrate buffer at pH 5.5) [%],"dependence of solubility on NaCl concentration ([1]; citrate pH 5.5, NaCl 0-4 mg/ml)",oxidation or degradation products in chromatograms of the sample solutions [2],iontophoretic flux (averages±s.e.m.) ([3]; donor concentration 20 mg/ml) [μg/hr/cm^2],mean transport during the iontophoretic period ([3]; donor concentration 20 mg/ml) [μg/hr/cm^2],iontophoretic flux (averages±s.e.m.) ([3]; donor concentration 35 mg/ml) [μg/hr/cm^2],mean transport during the iontophoretic period ([3]; donor concentration 35 mg/ml) [μg/hr/cm^2],iontophoretic flux (averages±s.e.m.) ([3]; donor concentration 55 mg/ml) [μg/hr/cm^2],mean transport during the iontophoretic period ([3]; donor concentration 55 mg/ml) [μg/hr/cm^2],mean transport during the iontophoretic period ([3]; donor concentration 75 mg/ml) [μg/hr/cm^2],mean transport during the iontophoretic period (averages±s.e.m.) ([3]; sodium chloride 0 mg/ml) [μg/hr/cm^2],mean transport during the iontophoretic period (averages±s.e.m.) ([3]; sodium chloride 2 mg/ml) [μg/hr/cm^2],mean transport during the iontophoretic period (averages±s.e.m.) ([3]; sodium chloride 4 mg/ml) [μg/hr/cm^2],"permeation with iontophoresis as compared to passive delivery (FIG. 5) ([4]; current densities 0, 0.1, 0.3 and 0.5 mA)","relationship between flux and current density (FIG. 5) ([4]; 5 g/ml solution, current densities 0, 0.1, 0.3 and 0.5 mA)",change of iontophoretic flux with active substance concentration (FIG. 4) ([4]; further increase to 10 mg/ml),change of iontophoretic flux with active substance concentration (FIG. 4) ([4]; increase from 1 mg/ml to 5 mg/ml)
CN1CCN(c2cccc3[nH]c(=O)oc23)CC1.Cl [7-(4-methyl-1-piperazinyl)-2(3H)-benzoxazolone monohydrochloride],80,85,85,increases with reducing NaCl concentration,No oxidation or degradation products of the compound were observed,409±47,394±26,467±74,383±42,580±87,459±59,418±31,471±65,377±37,424±50,,,,
CS(=O)(=O)O.O=c1[nH]c2cccc(N3CCN(Cc4ccccc4)CC3)c2o1 [7-(4-benzyl-1-piperazinyl)-2(3H)-benzoxazolone mesylate],,,,,,,,,,,,,,,,considerably enhances the permeation,linear relationship between flux and current density,no increase in iontophoretic flux,increase in iontophoretic flux
